Assay results: article PMC5675611, “GZD824 suppresses the growth of human B cell precursor acute lymphoblastic leukemia cells by inhibiting the SRC kinase and PI3K/AKT pathways” (Oncotarget, 2016)

Tests used:
[1] = test system: normal human primary B cells; assay: Annexin V apoptosis of normal B cells; assay type: cell-based; details: 1μM, vs DMSO
C-Myc = assay: Western blot of NALM6 cells; assay type: cell-based, human; details: NALM6, 1μM or 3μM, 24 hours
Description: (§1) Figure 5 GZD824 inhibits the SRC kinase in pre-B ALL cells A-C. Western blot analysis of […]-treated NALM6 cells. Cells were treated with DMSO, GZD824 (1μM), or GZD824 (3μM) for 24 hours. Lysates were analyzed with antibodies to (A) phospho-SRC and SRC; (B) phospho-STAT3 and STAT3; and (C) phospho-Rb, Rb, and C-Myc. D. qRT-PCR products of BCL-XL, CCND1, CDK4, and CCK[…] mRNA were normalized to GAPDH and presented as fold increase or decrease compared to control, 24 hours after treatment with 3 μM GZD824. E. NALM6 cells were treated with GZD824, SRC inhibitor (KX2-391), STAT3 inhibitor (HO-3867), or DMSO for 24 hours. Statistical analysis of Annexin V-positive cells in 3μM of drug treated NALM6 cells. All data from independent experiments are presented as mean ± SEM. Significance values: ^*P<0.05; ^**P<0.01; ^***P<0.001. For Western blot analysis, 30 μg of total protein extracts prepared from NALM6 or primary pre-B ALL cells from SP of PDX mice were separated on SDS-PAGE and transferred to a PVDF membrane (Bio-Rad, Hercules, CA, USA). The following commercially available antibodies and dilutions were used for Western blotting: human anti-STAT3 (ab119352, Abcam, UK), human anti-phospho-STAT3 (Y705) (ab76315, Abcam, UK), human anti-SRC (ab32102, Abcam, UK), human anti-phospho-SRC ([…]) (ab185617, Abcam, UK), human anti-RB (9313, Cell Signaling Technology, MA, USA), human anti-phospho-RB (Ser807/811) (8516, Cell Signaling Technology, MA, USA), human anti-C-myc (13987, Cell Signaling Technology, MA, USA), anti-AKT (pan) ([…], Cell Signaling Technology, MA, USA), anti-phospho-AKT (Ser473) ([…], Cell Signaling Technology, MA, USA), anti-IRS-1 ([…], Cell Signaling Technology, MA, USA), and human anti-β-actin (4970, Cell Signaling Technology, MA, USA). Western blot analysis was performed with cell lines or primary pre-B ALL cells from SP following GZD824 treatment, and signal intensities were normalized to β-actin signals.

phospho-Rb = assay: Western blot of NALM6 cells; assay type: cell-based, human; details: NALM6, 1μM or 3μM, 24 hours
Description: as §1

phospho-SRC = assay: Western blot of NALM6 cells; assay type: cell-based, human; details: NALM6, 1μM or 3μM, 24 hours
Description: as §1

phospho-STAT3 = assay: Western blot of NALM6 cells; assay type: cell-based, human; details: NALM6, 1μM or 3μM, 24 hours
Description: as §1

IRS1 = assay: Western blot of primary pre-B ALL cells; assay type: cell-based, human; details: GZD824 1μM, IGF-1 10ng/ML, 24 hours
Description: (§2) Figure 6 GZD824 inhibits PI3K/AKT signaling in pre-B ALL cells A. Cells were harvested from PB, SP, and BM of P#2 xenograft mice and cultured with or without 1μM GZD824 for 24h. Bars represent the mean percentages of AnnexinV+ cells in each group. B. Primary pre-B ALL cells from spleen of P#1 xenograft mouse treated with DMSO, GZD824 (1μM), IGF-1 (10ng/ML), or both. Bars represent the mean percentages of AnnexinV+ cells in each group. C. Western blot analysis of NALM6 cells. Cells were treated with DMSO, GZD824 (1μM), or GZD824 (3μM) for 24 hours. Lysates were analyzed with antibodies against IRS1, phosphate AKT, and AKT. D. Western blot analysis of primary pre-B ALL cells. Primary cells treated with GZD824 (1μM), IGF-1 (10ng/ML), or both for 24 hours. Lysates were analyzed with antibodies against Irs1, phosphate AKT, and AKT.
(§3) For Western blot analysis, 30 μg of total protein extracts prepared from NALM6 or primary pre-B ALL cells from SP of PDX mice were separated on SDS-PAGE and transferred to a PVDF membrane (Bio-Rad, Hercules, CA, USA). The following commercially available antibodies and dilutions were used for Western blotting: human anti-STAT3 (ab119352, Abcam, UK), human anti-phospho-STAT3 (Y705) (ab76315, Abcam, UK), human anti-SRC (ab32102, Abcam, UK), human anti-phospho-SRC (Y419) (ab185617, Abcam, UK), human anti-RB (9313, Cell Signaling Technology, MA, USA), human anti-phospho–RB (Ser807/811) (8516, Cell Signaling Technology, MA, USA), human anti-C-myc (13987, Cell Signaling Technology, MA, USA), anti-AKT (pan) (4691P, Cell Signaling Technology, MA, USA), anti-phospho-AKT (Ser473) (4060P, Cell Signaling Technology, MA, USA), anti-IRS-1 (2390S, Cell Signaling Technology, MA, USA), and human anti–β-actin (4970, Cell Signaling Technology, MA, USA). Western blot analysis was performed with cell lines or primary pre-B ALL cells from SP following GZD824 treatment, and signal intensities were normalized to β-actin signals.

[2] = test system: phosphorylated AKT (Ser473); assay: Western blot of primary pre-B ALL cells; assay type: cell-based, human; details: GZD824 1μM, IGF-1 10ng/ML, 24 hours
Description: as §2, §3

Q: Which results are given for Cc1ccc(C(=O)Nc2ccc(CN3CCN(C)CC3)c(C(F)(F)F)c2)cc1C#Cc1cnc2[nH]ncc2c1 [GZD824]?
A: apoptosis in normal human primary B cells [1]: did not induce apoptosis; c-Myc oncogene expression (C-Myc): downregulated; Rb phosphorylation (phospho-Rb): suppressed; phosphorylated SRC (phospho-SRC): reduced; phosphorylated STAT3 (phospho-STAT3): reduced; levels of IRS1 (IRS1): reduction; levels of phosphorylated AKT (Ser473) [2]: reduction
